Data: patent US10864215B2, “Use of phosphoinositide 3-kinase inhibitors for treatment of vascular malformations” (MEMORIAL SLOAN-KETTERING CANCER CENTER, priority 2015, dated 2020)
Entries after “also recorded” stand apart in the source; their conditions may differ.

Tests used:
[1] = test system: ANG2; experiment: ANG2 mRNA (RT-qPCR) and protein (ELISA) in PIK3CA^H1047R ECs; format: cell-based, human; settings: serum-starved, treated overnight, BYL719 1 μM, MK2206 1 μM, Everolimus 50 nM; for ANG2 protein expression: ELISA; for ANG2 mRNA expression: RT-qPCR
[2] = test system: PIK3CA^CAG-CreER VM-derived allografts; experiment: VM allografts treated topically with BYL719 1% (w/w) cream; format: in vivo, mice; settings: topical, daily, BYL719 1% (w/w) in two cream formulations (free and soluble BYL719), 3 weeks
Method: For the formulation of topical preparations, the cream base Versatile™ (Fargon) was used, which allows the incorporation of active principles and has the ability to vanish rapidly into the skin of the mice. Two different formulations using BYL719 at 1% (w/w) were prepared as follows. Free BYL719: This formulation was generated by mixing BYL719 in powder with the base cream and homogenized using an Ultra-Turrax to achieve a similar distribution of the active principle. Soluble BYL719: For this formula, BYL719 powder was dissolved in a small volume of DMSO (400 mg×mL^−1). This concentrated solution was then incorporated into the base cream with gentle agitation, achieving a homogeneous distribution of the active principle. The topical formulations were applied into the mice lesions at daily-basis and VM growth was assessed as described above.

[3] = test system: PIK3CA^CAG-CreER VM-derived allografts; experiment: PIK3CA^CAG-CreER VM-derived allografts in nude mice, oral treatment; format: in vivo; settings: for VM volume / apoptosis (cleaved caspase 3 in CD31-positive cells) / proliferation (BrdU incorporation in CD31-positive cells): allografts in nude mice, daily p.o., one week, BYL719 50 mg×kg^−1, everolimus 10 mg×kg^−1, propranolol 40 mg×kg^−1
Method: For allograft studies, vascular lesions isolated from PIK3CA^CAG-CreER mice were rinsed with ice cold PBS, minced, resuspended with cold 1:1 DMEM/Matrigel, and injected subcutaneously in six-week-old female athymic Foxn1^nu nude mice. […] The following formula was applied:
[formula] After one week of treatment, VM were measured and harvested for further analysis. VM volume was calculated using the following formula: […]
(§1) IHC and IF stainings were performed using Discovery XT processor (Ventana Medical Systems) at the Molecular Cytology Core (MSKCC). Tissue sections were deparaffinized with EZPrep buffer (Ventana Medical Systems), antigen retrieval was performed with CC1 buffer (Ventana Medical Systems). Sections were blocked for 30 minutes with Background Buster solution (Innovex) or 10% normal rabbit serum (for LYVE-1 antibody) followed by avidin/biotin blocking for 8 minutes. Sections were stained with the following antibodies: CD31: (Dianova, DIA-310, 1 μg×mL^−1) for 5 hours, followed by 60 minutes incubation with biotinylated goat anti-rat IgG (Vector labs, PK-4004) at 1:200 dilution. The detection was performed with Streptavidin-HRP D (Ventana Medical Systems), followed by incubation with Alexa Fluor 488 (Invitrogen, T20922); BrdU: sections were pretreated with Protease K (5 μg×mL^−1) and incubated with anti-BrdU (Roche, 1170376, 1 μg×mL^−1) for 5 hours, followed by 60 minutes incubation with biotinylated horse anti-mouse IgG (Vector Labs, MKB-22258). The detection was performed with Streptavidin-HRP D (Ventana Medical Systems), followed by incubation with Alexa Fluor 594 (Invitrogen, T20935). When two markers were used, stainings were performed consecutively according to the procedure described above. After staining, slides were counterstained with DAPI (Sigma, D9542, 5 μg×mL^−1) for 10 min and coverslipped with Mowiol. Antibodies were used as follows: GLUT-1: Sections were incubated with anti-GLUT-1 antibody (Chemicon, AB1340, 0.5 μg×mL^−1) for 4 hours, followed by 60 minutes incubation with biotinylated goat anti-rabbit IgG (Vector labs, PK6101) at 1:200 dilution; LYVE-1: Sections were incubated with anti-LYVE-1 antibody (R&D Systems, AF2125, 1 μg×mL^−1) for 3 hours, followed by 60 minutes incubation with biotinylated rabbit anti-goat IgG (Vector, BA-5000) at 1:200 dilution.; and WT-1: Sections were incubated with anti-WT-1 antibody (Abcam, Ab89901, 1:50 dilution) for 1 hour, followed by 60 minutes incubation with biotinylated rabbit anti-goat IgG (Vector, BA-5000) at 1:200 dilution. For GLUT-1, LYVE-1, and WT-1 IHC, detection was performed with DAB detection kit (Ventana Medical Systems) according to manufacturer instructions, followed by counterstaining with hematoxylin (Ventana Medical Systems) and coverslipped with Permount (Fisher Scientific).

[4] = test system: phosphorylated AKT (T308 and S473); experiment: Western blot of HUVEC cells expressing TEK L914F; format: cell-based, human; settings: HUVEC stably expressing TEK L914F, treated 4 hours
Method: FIGS. 27A-27B. Treatment of VM with PI3K inhibitors. (A) Western blot of HUVEC cells transduced with TEK L914F mutation and probed with the indicated antibodies. Cells were treated for 4 hours with the indicated doses of BYL719. (B) Representative images of the allograft VM treated with the topical formulation of BYL719. Free and soluble refer to the two different preparations of the topical formula. Arrows indicate the area affected by the VM allograft.
Proteins were extracted using RIPA buffer and Western blot was performed usim standard methods. Antibodies for Western blot were: pAKT (S473) (Cell Signaling; 4060), pAKT (T308) (Cell Signaling; 2965), AKT (Cell Signaling; 9272), pS6K (T389) (Cell Signaling; 9205), S6K (Cell Signaling; 2708), pS6 (S240/4) (Cell Signaling; 5364), pS6 (S235/6) (Cell Signaling; 4858), S6 (Cell Signaling; 2217), actin (Cell Signaling; 4970). Tube formation assay was performed using Matrigel-coated 48 multiwells as a substrate. 10^5 EC were seeded in EBM-2 media without FBS and analyzed after 6 hours for tube formation.

[5] = test system: PIK3CA^Tie2-Cre embryos; experiment: Treatment of pregnant PIK3CA^Tie2-Cre mice, embryo vascular phenotype; format: in vivo
Method: as §1, with “For the treatment of pregnant PIK3CA^Tie2-Cre mice, BYL719 was administered orally three times at E7.5, E8.5, and E9.5. Two hours after the last treatment, embryos were harvested and characterized. IHC and” for “IHC and”

[6] = VVM in nude mice, BYL719 50 mg×kg-1 daily p.o.
[7] = pregnant mice, BYL719 50 mg×kg^−1 p.o., 48, 24 and 2 hours before harvest

For `Cl.Cl.NC1(c2ccc(-c3nc4ccn5c(=O)[nH]nc5c4cc3-c3ccccc3)cc2)CCC1` [MK2206, 8-[4-(1-aminocyclobutyl)phenyl]-9-phenyl-1,2,4-triazolo[3,4-f][1,6]naphthyridin-3(2H)-one, dihydrochloride], the ANG2 protein expression [1] was “able to rescue” and the “ANG2 mRNA expression” value [1] was “able to rescue”.
With `Cc1nc(NC(=O)N2CCC[C@H]2C(N)=O)sc1-c1ccnc(C(C)(C)C(F)(F)F)c1` [BYL719] the “regression of skin lesions (VM volume)” value [2] was “rapid and sustained regression of skin lesions”, the “phospho-AKT (S473) levels” value [3, 6] was “decrease” and the “phospho-S6RP (S240/4) levels” value [3, 6] was “decrease”. The VM volume [3] was “decrease in VM volume”, the “apoptosis (cleaved caspase 3 in CD31-positive cells)” value [3] was “increased apoptosis” and the “proliferation (BrdU incorporation in CD31-positive cells)” value [3] was “decrease in proliferation; also recorded: reduced proliferation”. The “amount of phosphorylated AKT (T308 and S473)” value [4] was “decreased”, the ANG2 protein expression [1] was “able to rescue” and the “ANG2 mRNA expression” value [1] was “able to rescue”. For the same molecule, the “meningeal, cardinal vein and dorsal aorta blood vessel morphology (histology, CD31 coronal sections)” value ([5]; pregnant mice treated, E9.5 embryos) was “reestablished meningeal, cardinal vein, and dorsal aorta blood vessels morphology”, the “Phospho-AKT staining in PIK3CA^Tie2-Cre and PIK3CA^WT embryos” value ([5]; pregnant mice treated, versus untreated control embryos) was “strong reduction” and the “cephalic and intersomitic small blood vessel formation (CD31 whole-mount staining)” value [5, 7] was “restored cephalic and intersomitic small blood vessel formation”. The “overall body size of PIK3CA^Tie2-Cre E9.5 embryos” value [5, 7] was “comparable to PIK3CA^WT littermates”.
With `CO[C@H]1C[C@@H]2CC[C@@H](C)[C@@](O)(O2)C(=O)C(=O)N2CCCC[C@H]2C(=O)O[C@H]([C@H](C)C[C@@H]2CC[C@@H](OCCO)[C@H](OC)C2)CC(=O)[C@H](C)/C=C(\C)[C@@H](O)[C@@H](OC)C(=O)[C@H](C)C[C@H](C)/C=C/C=C/C=C/1C` [everolimus] the VM volume [3] was “partially decreased VM size; also recorded: greatest growth inhibition”, the “apoptosis (cleaved caspase 3 in CD31-positive cells)” value [3] was “did not increase apoptosis” and the “proliferation (BrdU incorporation in CD31-positive cells)” value [3] was “partially decreased”.
